What was measured:
Assay in all cases: saturation binding of fluorescent ligand, flow cytometry, permeabilized yeast
Assay type in all cases: cell-based
Conditions in all cases: PBS, 1% DMSO, 22 °C, 1 h; apparent affinity; labelled compound (fluorescent ligand itself); no G protein
A2aR [1] = target: T1, A2aR (Homo sapiens, UniProt P29274, N34K)
T1 construct: gene ADORA2A; full-length receptor with C-terminus (positions to 412), N-terminal synthetic pre-pro leader, no eGFP; pYES2 (subcloned from pITy-MC-His10), permeabilized S. cerevisiae BY4741
T1 sequence (P29274 whole entry N34K): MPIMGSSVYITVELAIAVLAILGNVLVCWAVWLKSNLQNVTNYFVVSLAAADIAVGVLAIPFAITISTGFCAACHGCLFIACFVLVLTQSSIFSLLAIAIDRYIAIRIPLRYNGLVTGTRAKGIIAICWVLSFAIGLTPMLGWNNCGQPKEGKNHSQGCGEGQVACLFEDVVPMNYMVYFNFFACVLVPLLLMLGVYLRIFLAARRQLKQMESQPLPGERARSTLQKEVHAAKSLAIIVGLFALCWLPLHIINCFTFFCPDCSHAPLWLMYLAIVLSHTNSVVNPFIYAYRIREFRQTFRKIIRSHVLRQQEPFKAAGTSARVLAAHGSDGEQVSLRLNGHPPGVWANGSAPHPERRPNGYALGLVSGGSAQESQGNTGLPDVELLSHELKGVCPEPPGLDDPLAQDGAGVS
From the text: (§1) saturation binding of fluorescent ligand, flow cytometry, permeabilized yeast on A2aR

A2aR [2] = target: T2, A2aR (Homo sapiens, UniProt P29274)
T2 construct: gene ADORA2A; full-length receptor with C-terminus (positions to 412), N-terminal synthetic pre-pro leader, no eGFP; pYES2 (subcloned from pITy-MC-His10), permeabilized S. cerevisiae BY4741
T2 sequence (P29274 whole entry): as the sequence (P29274 whole entry N34K) above, with K34N counted along it
From the text: as §1

A2aR [3] = target: T3, A2aR (Homo sapiens, UniProt P29274, P313S/P354A)
T3 construct: gene ADORA2A; full-length receptor with C-terminus (positions to 412), N-terminal synthetic pre-pro leader, no eGFP; pYES2 (subcloned from pITy-MC-His10), permeabilized S. cerevisiae BY4741
T3 sequence (P29274 whole entry P313S/P354A): as the sequence (P29274 whole entry N34K) above, with K34N, P313S, P354A counted along it
From the text: as §1

In the case of CA200623, the “logEC50 ± SE^c” value (A2aR [1]) is reported as −7.78 ± 0.04, the “logEC50 ± SE^c” value (A2aR [2]) is reported as −8.01 ± 0.06 and the “logEC50 ± SE^c” value (A2aR [3]) is reported as −8.90 ± 0.03.

Reference: PMC9126886, “Yeast-based directed-evolution for high-throughput structural stabilization of G protein-coupled receptors (GPCRs)” (Scientific Reports, 2022)
